Test results: US9675592B2, “Methods and compositions for bacteria infections” (priority 2013, dated 2017)

Key:
[1] = test system: test strain 923 pPvra-lux (USA300 MRSA); assay: Primary screen, relative growth in presence of oxacillin; conditions: compound 10 μM with oxacillin 2 μg/mL, absorbance 24 h, <0.50 = dead cells = hit
[2] = test system: vraSR promoter (Pvra-lux reporter in strain 923); assay: Primary screen, relative luminescence (vraSR expression); conditions: primary screen, compound 10 μM with oxacillin 2 μg/mL; <0.50 = vraSR repressed = hit

| Compound | RG avg (relative growth) [1] | RL avg (relative luminescence) [2] |
| --- | --- | --- |
| COc1cc(OC)cc(-c2nnc(NC(=O)c3ccc(Cl)cc3Cl)o2)c1 [F1374-651] | 0.04 | 0.38 |
| COc1cc(OC)cc(C(=O)Nc2nnc(-c3ccc(Br)cc3)o2)c1 [F2518-451] | −0.01 | −0.10 |
| COc1cc(OC)cc(-c2nnc(NC(=O)c3ccc(Cl)s3)o2)c1 [F1374-666] | 0.05 | 0.34 |
| O=C(Nc1nnc(-c2ccc(Br)s2)o1)c1cc(Cl)ccc1Cl [F5093-46] | −0.01 | −0.07 |
| COC(=O)c1ccc(C(=O)Nc2nnc(-c3cc(C)ccc3C)o2)cc1 [F2518-355] | −0.01 | −0.04 |
| O=C(Nc1nnc(-c2cc3ccccc3o2)o1)c1nc2ccccc2s1 [F2273-415] | 0.27 | 0.22 |
| CC1CCCCN1S(=O)(=O)c1ccc(C(=O)Nc2nnc(-c3ccc4c(c3)OCCO4)o2)cc1 (stereo not drawn) [F0608-71] | −0.03 | 0.01 |
| CCN(Cc1ccccc1)S(=O)(=O)c1ccc(C(=O)Nc2nnc(-c3ccc(OC)cc3)o2)cc1 [F0559-206] | 0.19 | −0.11 |
| COc1cc(OC)cc(-c2nnc(NC(=O)c3ccc(S(=O)(=O)N(C)c4ccccc4)cc3)o2)c1 [F0559-246] | −0.03 | −0.08 |
| O=C(Nc1nnc(-c2cccnc2)o1)c1cccc(Br)c1 [F0608-950] | −0.01 | −0.14 |
| O=C(Nc1nnc(-c2ccc(F)cc2)o1)c1ccc(Oc2ccccc2)cc1 [F1374-188] | 0.02 | 0.33 |
| COc1cccc(C(=O)Nc2nnc(-c3ccc(C)c(C)c3)o2)c1 [F2767-17] | 0.00 | −0.15 |
| CCCCN(CC)S(=O)(=O)c1ccc(C(=O)Nc2nnc(-c3ccccc3Cl)o2)cc1 [F0559-36] | −0.08 | −0.16 |
| O=C(Nc1nnc(-c2ccc3c(c2)OCCO3)o1)c1cccc(Cl)c1 [F0608-123] | −0.02 | −0.04 |
| O=C(Nc1nnc(-c2cc(Cl)ccc2Cl)o1)c1ccc(Br)s1 [F2518-41] | 0.00 | −0.03 |
| COc1cc(-c2nnc(NC(=O)c3cccc(Br)c3)o2)cc(OC)c1OC [F2517-14] | −0.03 | −0.07 |
| O=C(Nc1nnc(-c2ccc3c(c2)CCCC3)o1)c1cccc(C(F)(F)F)c1 [F0608-575] | −0.02 | −0.09 |
| O=C(Nc1nnc(-c2cc(Cl)ccc2Cl)o1)c1ccc2c(c1)CCCC2 [F2518-85] | 0.00 | −0.05 |
| COc1ccccc1-c1nnc(NC(=O)c2cc(-c3ccccc3)nc3ccccc23)o1 [F1374-254] | 0.06 | 0.36 |
| Cc1ccc(-c2nnc(NC(=O)c3ccc(S(=O)(=O)N4CCCCC4C)cc3)o2)c(C)c1 (stereo not drawn) [F2518-228] | 0.00 | −0.14 |
| O=C(Nc1nnc(-c2ccc(Br)cc2)o1)c1cccc(Br)c1 [F2518-447] | 0.02 | 0.00 |
| O=C(Nc1nnc(-c2ccc(F)cc2)o1)c1nc2ccccc2s1 [F1374-138] | 0.00 | 0.40 |
| O=C(Nc1nnc(-c2cc3ccccc3o2)o1)c1ccc(F)cc1 [F2273-390] | 0.27 | 0.20 |
| CCOc1cccc2cc(-c3nnc(NC(=O)c4sc5ccccc5c4Cl)o3)oc12 [F2273-238] | 0.26 | 0.19 |
